Experimental findings from patent US10450316B2, “Certain protein kinase inhibitor” (Chongqing Fochon Pharmaceutical Co., Ltd., priority 2015, dated 2019) are described below.

A value given as a limit tells only on which side of the number the result lay.

This assay relates to BE(2)-C cell. As to the kind of experiment: Cell proliferation assay (MTS) in BE(2)-C cells. It is filed as cell-based. The conditions noted are these: Homo sapiens, inhibition of BE(2)-C cell proliferation, 48 h. In outline: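 BE(2)-C cells (3000/well, DMEM + 10% FBS) were treated for 48 h at 37 °C with compound at 1.5–10000 nM in nine concentrations. Viability was measured by MTS (2 h, stopped with SDS) at 490/650 nm, and IC50 was calculated from the dose-response.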
Usually IC50 stands for the midpoint of a concentration-inhibition curve. `C[C@@H]1CCc2nc3c(F)cc(-c4nc(Nc5ccc(CN6CCC7(CCNCC7)CC6)cn5)ncc4F)cc3n21` [Example 92, (R)-N-(5-((3,9-diazaspiro[5.5]undecan-3-yl)methyl)pyridin-2-yl)-5-fluoro-4-(5-fluoro-1-methyl-2,3-dihydro-1H-benzo[d]pyrrolo[1,2-a]imidazol-7-yl)pyrimidin-2-amine]: the IC50 was greater than 100 nM.
In turn, `C[C@@H]1CCc2nc3c(F)cc(-c4nc(Nc5ccc(CN6CCC7(CCN(C)CC7)CC6)cn5)ncc4F)cc3n21` [Example 93, (R)-5-fluoro-4-(5-fluoro-1-methyl-2,3-dihydro-1H-benzo[d]pyrrolo[1,2-a]imidazol-7-yl)-N-(5-((9-methyl-3,9-diazaspiro[5.5]undecan-3-yl)methyl)pyridin-2-yl)pyrimidin-2-amine] returned an IC50 greater than 100 nM.
`CCN1CCC2(CC1)CCN(Cc1ccc(Nc3ncc(F)c(-c4cc(F)c5nc6n(c5c4)[C@H](C)CC6)n3)nc1)CC2` [Example 94, (R)-N-(5-((9-ethyl-3,9-diazaspiro[5.5]undecan-3-yl)methyl)pyridin-2-yl)-5-fluoro-4-(5-fluoro-1-methyl-2,3-dihydro-1H-benzo[d]pyrrolo[1,2-a]imidazol-7-yl)pyrimidin-2-amine] displayed an IC50 greater than 100 nM.
In turn, `C[C@@H]1CCc2nc3c(F)cc(-c4nc(Nc5ccc(CN6CC7(CNC7)C6)cn5)ncc4F)cc3n21` [Example 95, (R)-N-(5-((2,6-diazaspiro[3.3]heptan-2-yl)methyl)pyridin-2-yl)-5-fluoro-4-(5-fluoro-1-methyl-2,3-dihydro-1H-benzo[d]pyrrolo[1,2-a]imidazol-7-yl)pyrimidin-2-amine] returned an IC50 greater than 1000 nM.
The result for `C[C@@H]1CCc2nc3c(F)cc(-c4nc(Nc5ccc(CN6CC7(CN(C)C7)C6)cn5)ncc4F)cc3n21` [Example 96, (R)-5-fluoro-4-(5-fluoro-1-methyl-2,3-dihydro-1H-benzo[d]pyrrolo[1,2-a]imidazol-7-yl)-N-(5-((6-methyl-2,6-diazaspiro[3.3]heptan-2-yl)methyl)pyridin-2-yl)pyrimidin-2-amine] reads greater than 100 nM; that for `CCN1CC2(C1)CN(Cc1ccc(Nc3ncc(F)c(-c4cc(F)c5nc6n(c5c4)[C@H](C)CC6)n3)nc1)C2` [Example 97, (R)-N-(5-((6-ethyl-2,6-diazaspiro[3.3]heptan-2-yl)methyl)pyridin-2-yl)-5-fluoro-4-(5-fluoro-1-methyl-2,3-dihydro-1H-benzo[d]pyrrolo[1,2-a]imidazol-7-yl)pyrimidin-2-amine], 10 to 100 nM; that for `C[C@@H]1CCc2nc3c(F)cc(-c4nc(Nc5ccc(CN6CC7CNCC7C6)cn5)ncc4F)cc3n21` (stereo partly drawn) [Example 98, 5-fluoro-4-((R)-5-fluoro-1-methyl-2,3-dihydro-1H-benzo[d]pyrrolo[1,2-a]imidazol-7-yl)-N-(5-((hexahydropyrrolo[3,4-c]pyrrol-2(1H)-yl)methyl)pyridin-2-yl)pyrimidin-2-amine], greater than 100 nM.
The result for `C[C@@H]1CCc2nc3c(F)cc(-c4nc(Nc5ccc(CN6CC7CN(C)CC7C6)cn5)ncc4F)cc3n21` (stereo partly drawn) [Example 99, 5-fluoro-4-((R)-5-fluoro-1-methyl-2,3-dihydro-1H-benzo[d]pyrrolo[1,2-a]imidazol-7-yl)-N-(5-((5-methylhexahydropyrrolo[3,4-c]pyrrol-2(1H)-yl)methyl)pyridin-2-yl)pyrimidin-2-amine] reads 10 to 100 nM; that for `CCN1CC2CN(Cc3ccc(Nc4ncc(F)c(-c5cc(F)c6nc7n(c6c5)[C@H](C)CC7)n4)nc3)CC2C1` (stereo partly drawn) [Example 100, N-(5-((5-ethylhexahydropyrrolo[3,4-c]pyrrol-2(1H)-yl)methyl)pyridin-2-yl)-5-fluoro-4-((R)-5-fluoro-1-methyl-2,3-dihydro-1H-benzo[d]pyrrolo[1,2-a]imidazol-7-yl)pyrimidin-2-amine], 10 to 100 nM; that for `C[C@@H]1CCc2nc3c(F)cc(-c4nc(Nc5ccc(CN6C7CCC6CNC7)cn5)ncc4F)cc3n21` [Example 101, N-(5-((3,8-diazabicyclo[3.2.1]octan-8-yl)methyl)pyridin-2-yl)-5-fluoro-4-((R)-5-fluoro-1-methyl-2,3-dihydro-1H-benzo[d]pyrrolo[1,2-a]imidazol-7-yl)pyrimidin-2-amine], greater than 100 nM.
For `C[C@@H]1CCc2nc3c(F)cc(-c4nc(Nc5ccc(CN6C7CCC6CN(C)C7)cn5)ncc4F)cc3n21` [Example 102, 5-fluoro-4-((R)-5-fluoro-1-methyl-2,3-dihydro-1H-benzo[d]pyrrolo[1,2-a]imidazol-7-yl)-N-(5-((3-methyl-3,8-diazabicyclo[3.2.1]octan-8-yl)methy1)pyridin-2-yl)pyrimidin-2-amine] the value was 10 to 100 nM; for `CCN1CC2CCC(C1)N2Cc1ccc(Nc2ncc(F)c(-c3cc(F)c4nc5n(c4c3)[C@H](C)CC5)n2)nc1` [Example 103, N-(5-((3-ethyl-3,8-diazabicyclo[3.2.1]octan-8-yl)methyl)pyridin-2-yl)-5-fluoro-4-((R)-5-fluoro-1-methyl-2,3-dihydro-1H-benzo[d]pyrrolo[1,2-a]imidazol-7-yl)pyrimidin-2-amine], 10 to 100 nM; for `C[C@@H]1CCc2nc3c(F)cc(-c4nc(Nc5ccc(CN6CC7CCC(C6)N7)cn5)ncc4F)cc3n21` [Example 104, N-(5-((3,8-diazabicyclo[3.2.1]octan-3-yl)methyl)pyridin-2-yl)-5-fluoro-4-((R)-5-fluoro-1-methyl-2,3-dihydro-1H-benzo[d]pyrrolo[1,2-a]imidazol-7-yl)pyrimidin-2-amine], 10 to 100 nM.
As to `C[C@@H]1CCc2nc3c(F)cc(-c4nc(Nc5ccc(CN6CC7CCC(C6)N7C)cn5)ncc4F)cc3n21` [Example 105, 5-fluoro-4-((R)-5-fluoro-1-methyl-2,3-dihydro-1H-benzo[d]pyrrolo[1,2-a]imidazol-7-yl)-N-(5-((8-methyl-3,8-diazabicyclo[3.2.1]octan-3-yl)methyl)pyridin-2-yl)pyrimidin-2-amine], the IC50 fell in the range of 10 to 100 nM.
`CCN1C2CCC1CN(Cc1ccc(Nc3ncc(F)c(-c4cc(F)c5nc6n(c5c4)[C@H](C)CC6)n3)nc1)C2` [Example 106, N-(5-((8-ethyl-3,8-diazabicyclo[3.2.1]octan-3-yl)methyl)pyridin-2-yl)-5-fluoro-4-((R)-5-fluoro-1-methyl-2,3-dihydro-1H-benzo[d]pyrrolo[1,2-a]imidazol-7-yl)pyrimidin-2-amine] had an IC50 of 10 to 100 nM.
Turning to `CC1(C)CCc2nc3c(F)cc(-c4nc(Nc5ccc(CN6CCN7CCC[C@@H]7C6)cn5)ncc4F)cc3n21` [Example 110, (R)-5-fluoro-4-(5-fluoro-1,1-dimethyl-2,3-dihydro-1H-benzo[d]pyrrolo[1,2-a]imidazol-7-yl)-N-(5-((hexahydropyrrolo[1,2-a]pyrazin-2(1H)-yl)methyl)pyridin-2-yl)pyrimidin-2-amine], the IC50 lay within 10 to 100 nM.
The result for `CC1(C)CCc2nc3c(F)cc(-c4nc(Nc5ccc(CN6CC7(CCNCC7)C6)cn5)ncc4F)cc3n21` [Example 111, N-(5-((2,7-diazaspiro[3.5]nonan-2-yl)methyl)pyridin-2-yl)-5-fluoro-4-(5-fluoro-1,1-dimethyl-2,3-dihydro-1H-benzo[d]pyrrolo[1,2-a]imidazol-7-yl)pyrimidin-2-amine] reads greater than 100 nM; that for `CN1CCC2(CC1)CN(Cc1ccc(Nc3ncc(F)c(-c4cc(F)c5nc6n(c5c4)C(C)(C)CC6)n3)nc1)C2` [Example 112, 5-fluoro-4-(5-fluoro-1,1-dimethyl-2,3-dihydro-1H-benzo[d]pyrrolo[1,2-a]imidazol-7-yl)-N-(5-((7-methyl-2,7-diazaspiro[3.5]nonan-2-yl)methyl)pyridin-2-yl)pyrimidin-2-amine], less than 10 nM.
The compound `CCN1CCC2(CC1)CN(Cc1ccc(Nc3ncc(F)c(-c4cc(F)c5nc6n(c5c4)C(C)(C)CC6)n3)nc1)C2` [Example 113, N-(5-((7-ethyl-2,7-diazaspiro[3.5]nonan-2-yl)methyl)pyridin-2-yl)-5-fluoro-4-(5-fluoro-1,1-dimethyl-2,3-dihydro-1H-benzo[d]pyrrolo[1,2-a]imidazol-7-yl)pyrimidin-2-amine] yielded an IC50 of less than 10 nM.
Take `CC1(C)CCc2nc3c(F)cc(-c4nc(Nc5ccc(CN6CCC7(CC6)CNC7)cn5)ncc4F)cc3n21` [Example 114, N-(5-((2,7-diazaspiro[3.5]nonan-7-yl)methyl)pyridin-2-yl)-5-fluoro-4-(5-fluoro-1,1-dimethyl-2,3-dihydro-1H-benzo[d]pyrrolo[1,2-a]imidazol-7-yl)pyrimidin-2-amine]: the IC50 was greater than 100 nM.
As for `CN1CC2(CCN(Cc3ccc(Nc4ncc(F)c(-c5cc(F)c6nc7n(c6c5)C(C)(C)CC7)n4)nc3)CC2)C1` [Example 115, 5-fluoro-4-(5-fluoro-1,1-dimethyl-2,3-dihydro-1H-benzo[d]pyrrolo[1,2-a]imidazol-7-yl)-N-(5-((2-methyl-2,7-diazaspiro[3.5]nonan-7-yl)methyl)pyridin-2-yl)pyrimidin-2-amine], the IC50 was in the range of 10 to 100 nM.
In turn, `CCN1CC2(CCN(Cc3ccc(Nc4ncc(F)c(-c5cc(F)c6nc7n(c6c5)C(C)(C)CC7)n4)nc3)CC2)C1` [Example 116, N-(5-((2-ethyl-2,7-diazaspiro[3.5]nonan-7-yl)methyl)pyridin-2-yl)-5-fluoro-4-(5-fluoro-1,1-dimethyl-2,3-dihydro-1H-benzo[d]pyrrolo[1,2-a]imidazol-7-yl)pyrimidin-2-amine] came in with an IC50 of 10 to 100 nM.
For `CC1(C)CCc2nc3c(F)cc(-c4nc(Nc5ccc(CN6CC7(CNC7)C6)cn5)ncc4F)cc3n21` [Example 117, N-(5-((2,6-diazaspiro[3.3]heptan-2-yl)methyl)pyridin-2-yl)-5-fluoro-4-(5-fluoro-1,1-dimethyl-2,3-dihydro-1H-benzo[d]pyrrolo[1,2-a]imidazol-7-yl)pyrimidin-2-amine] the value was greater than 100 nM.
The compound `CN1CC2(C1)CN(Cc1ccc(Nc3ncc(F)c(-c4cc(F)c5nc6n(c5c4)C(C)(C)CC6)n3)nc1)C2` [Example 118, 5-fluoro-4-(5-fluoro-1,1-dimethyl-2,3-dihydro-1H-benzo[d]pyrrolo[1,2-a]imidazol-7-yl)-N-(5-((6-methyl-2,6-diazaspiro[3.3]heptan-2-yl)methyl)pyridin-2-yl)pyrimidin-2-amine] displayed an IC50 of 10 to 100 nM.
